The target in experiment [1] is T1, GPR39 (Homo sapiens, UniProt O43194).
T1 sequence (O43194 1-453): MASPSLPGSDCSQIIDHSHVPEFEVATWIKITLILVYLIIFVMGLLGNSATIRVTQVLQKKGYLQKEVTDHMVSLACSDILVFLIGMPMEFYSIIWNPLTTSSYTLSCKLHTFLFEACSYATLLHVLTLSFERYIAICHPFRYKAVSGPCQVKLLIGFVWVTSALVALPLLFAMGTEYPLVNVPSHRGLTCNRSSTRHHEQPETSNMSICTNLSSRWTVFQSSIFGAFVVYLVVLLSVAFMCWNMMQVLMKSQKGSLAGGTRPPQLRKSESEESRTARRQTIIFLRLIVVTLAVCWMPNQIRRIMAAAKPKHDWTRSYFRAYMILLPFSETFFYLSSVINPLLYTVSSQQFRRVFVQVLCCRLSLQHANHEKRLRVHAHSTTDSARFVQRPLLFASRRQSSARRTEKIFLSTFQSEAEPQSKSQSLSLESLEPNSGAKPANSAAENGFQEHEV
Put plainly: cAMP assay (HTRF), HEK293s-hGPR39 cells. Type of experiment: cell-based. More on the design: Full length human (AF034633), rat (DM091294) and mouse (BC085285) GPR39; expressed in transfected cells; host or cells: HEK293s (ATCC CRL-1573), pIRESneo3 vector, selected clones. The settings on record: for Efficacy at 33 μM: AZ1395 100% reference. The source says:
(§1) Full length human (AF034633), rat (DM091294) and mouse (BC085285) GPR39 (GeneArt–Life Technologies, Carlsbad, CA) were subcloned into the pIRESneo3 vector (Clontech, Mountain View, CA). The resulting expression vectors hGPR39-, rGPR39- and mGPR39-pIRESneo3 were transfected into HEK293s cells (ATCC CRL-1573) using Lipofectamine 2000 (Life Technologies). Individual clones were isolated using flow cytometry with a FACSVantage SE DIVA (Becton Dickinson, Franklin Lakes, NJ) and clones were chosen based on responses to Zn^2+ measured in a cAMP assay (see below). […] HEK293s-derived cell lines were cultured at 37°C, 10% CO2 and 95% humidity in DMEM supplemented with 10% FBS and 600 μg/ml Geneticin (Life Technologies). The mouse pancreas epithelial cell line NIT-1 (ATCC CRL-2055) with endogenous expression of GPR39 was cultured at 37°C, 5% CO2, and 95% humidity in Ham´s F12 (Life Technologies) supplemented with 10% FBS.
Measurements of cAMP production were performed using homogeneous time resolved fluorescence (HTRF) cAMP dynamic kits (CisBio, Codolet, France). All buffers and reagents were according to manufacturer’s protocol. In short, 0.1 μl of compounds in DMSO were added to small-volume 384-well plates (Greiner, Frickenhausen, Germany). 12,000 (5 μl) cells in Hank’s balanced salt solution (HBSS) (Life Technologies) and 20 mM HEPES (pH7.4; Life Technologies) were added per well. The production of cAMP was stimulated for 75 min at 37°C by addition of 5 μl 3-isobutyl-1-methylxanthine (0.375 mM final concentration; Sigma-Aldrich, St Louis, MO) and ZnCl2 (0 to 30 μM; Sigma). The reaction was stopped by addition of 5 μl cAMP-d2 and 5 μl anti-cAMP cryptate. The cAMP production was detected by HTRF (λex = 340 nm, λem = 665 and 615 nm) using a Pherastar (BMG Labtech, Ortenberg, Germany).
(§2) Concentration response data were fitted with a four parameter logistic fit using Eq 1, y=A+((B−A)/1+((C/x)^D))) (1) where A is no activation, B is full activation, C is the EC50 and D is the Hill slope.

In experiment [2] the target is T1, GPR39. Kind of experiment: IP1 assay (HTRF), HEK293s-hGPR39 cells. Also noted: Full length human (AF034633), rat (DM091294) and mouse (BC085285) GPR39; expressed in transfected cells; host or cells: HEK293s (ATCC CRL-1573), pIRESneo3 vector, selected clones. Conditions: for Efficacy at 33 μM: AZ1395 100% reference. The class given is cell-based.
Description: as §1
IP1 assays were performed using IP-One Tb kits (CisBio). IP1 production was detected by HTRF as described above. Buffers and reagents were according to manufacturers’ protocols except LiCl concentrations in stimulation buffer which were 50 mM in assays employing HEK293s-hGPR39 cells and 20 mM in assays using NIT-1 cells. For assays using HEK293s-hGPR39 cells, 12,500 cells per well were dispensed into small-volume 384-well plates (Greiner) and IP1 production was stimulated in the presence of compounds for 30 min at 37 °C in a total volume of 20 μl. For assays using NIT-1 cells, 25,000 cells per well were seeded into poly-D-lysine coated 384-well plates (Becton-Dickinson) and cultured in Ham´s F12 medium with 10% FBS. After 48 h, cells were washed with stimulation buffer and IP1 production stimulated in the presence of compounds for 45 min at 37 °C in a total volume of 60 μl.
as §2
Background: In TR-FRET formats the signal depends on donor and acceptor labels being close together.

In the next experiment the test system is INS-1E cells. Kind of experiment: Glucose stimulated insulin secretion (GSIS) in INS-1E cells. The class given is cell-based, rat. Conditions: for effect on GSIS: 1, 3 and 10 μM compound, 11.1 mM glucose; for unbound concentration yielding significant increases in GSIS (highest unbound concentration): free fraction calculated for 0.1% BSA. Here is the method: INS-1E cells obtained from Dr. Wollheim (Univ. Geneva, Switzerland), were grown in Roswell Park Memorial Institute medium (RPMI) 1640 (Life technologies) supplemented with 5% of fetal bovine serum (Thermo Fischer Scientific, Inc. Waltham, MA). At 4 or 5 days before the assay, cells were plated in 24-well plates at 2 × 10^5 cells /well. At the day of the assay, cells were washed twice by Krebs-Ringer bicarbonate (KRB) buffer containing 0.1% BSA (pH7.4) and pre-incubated at 37°C for 30 min. The cells were washed twice again, and the buffer was replaced by KRB buffer containing 0, 1, 3 and 10 μM of compounds and 11.1 mM of glucose. In order to examine whether Zn^2+ has an enhancing effect on the activity of each compound, 20 μM of Zn^2+ was added in the incubation buffer as necessary. After cells were stimulated at 37°C for 1 h, the reaction was terminated by placing on ice. The buffer was collected from each well and precipitated (1000 rpm for 2 min at 25°C) in order to be separated from the cells. For each sample, concentration of insulin was measured using HTRF insulin kit (Cisbio).
The free fraction in the INS-1E assay, containing 0.1% w/w BSA, was calculated by using the equilibrium conditions of a single binding site model as in Eq 3.
The free fraction in mouse plasma corresponds to 1—CP/Ptot.

Setting [3] is: absence (w/o) of Zn^2+, read-out: EC50.
Where [4] appears, read: presence of 5 μM Zn^2+, read-out: EC50.
Where [5] appears, read: presence of 5 μM Zn^2+, read-out: pEC50 ± SD (converted).
Setting [6] is: Zn^2+ by itself, read-out: EC50.

`N#Cc1ccc(OCCn2ccnc2)c(OCCn2ccnc2)c1` [AZ1395, 3,4-bis-(2-imidazol-1-ylethoxy)-benzonitrile]: the “Efficacy at 33 μM” value on GPR39 [1] (absence (w/o) of Zn^2+) amounted to 81%. Also, the EC50 was over 33 µM on GPR39 [1] (setting [3]); 0.49 µM on GPR39 [1] (setting [4]); 2.88 µM on GPR39 [2] (absence (w/o) of Zn^2+, read-out: pEC50 ± SD (converted)); 0.0191 µM at GPR39 [2] (setting [5]).

In the case of `Cc1nc2c(C(=O)O)cnn2c(O)c1Cc1ccc(Cl)cc1` [AZ4237, 6-[(4-chlorophenyl)methyl]-7-hydroxy-5-methyl-pyrazolo[1,5-a]pyrimidine-3-carboxylic acid], the entries for the “Efficacy at 33 μM” value at GPR39 [1] (absence (w/o) of Zn^2+) and on GPR39 [2] (absence (w/o) of Zn^2+) were 49% and 66%, respectively. Also, the EC50 at GPR39 [1] (setting [3]) is over 33 µM; at GPR39 [1] (setting [5]) it was 0.389 µM; on GPR39 [2] (setting [3]), over 33 µM; on GPR39 [2] (setting [5]), 0.0339 µM. Also, the results for the “effect on GSIS” value in the experiment on INS-1E cells (absence of Zn^2+) and in the experiment with INS-1E cells (presence of 20 μM Zn^2+) were “no effects” and “dose dependent GSIS increases”, respectively. Besides, the “unbound concentration yielding significant increases in GSIS (highest unbound concentration)” value in the experiment with INS-1E cells was 7.2 µM.

Consider `Cc1nc(-c2nc3c(c(=O)[nH]2)CN(C(=O)c2cccc(Cl)c2F)CC3)cs1` [AZ7914, 6-(3-chloro-2-fluoro-benzoyl)-2-(2-methylthiazol-4-yl)-3,5,7,8-tetrahydropyrido-[4,3-d]pyrimidin-4-one], for which the “Efficacy at 33 μM” value on GPR39 [1] (absence (w/o) of Zn^2+) is on record as 21%; on GPR39 [2] (absence (w/o) of Zn^2+), 45%. Besides, the EC50 on GPR39 [1] (setting [3]) was over 33 µM; at GPR39 [1] (setting [5]) it was 2.29 µM; on GPR39 [2] (setting [3]) it was over 33 µM; at GPR39 [2] (setting [4]) it was 0.074 µM. The “effect on GSIS” value with INS-1E cells (absence of Zn^2+) is “no effects”; with INS-1E cells (presence of 20 μM Zn^2+) it was “dose dependent GSIS increases”. Also, the “unbound concentration yielding significant increases in GSIS (highest unbound concentration)” value in the experiment with INS-1E cells was 8.4 µM.

Take `[Zn+2]` [Zn^2+]: the “pEC50 ± SD” value on GPR39 [1] (Zn^2+ by itself) is reported as “(4.92 ± 0.13)”; on GPR39 [2] (Zn^2+ by itself), “(4.63 ± 0.08)”. For the same molecule, the EC50 at GPR39 [1] (setting [6]) was found to be 12 µM; on GPR39 [2] (setting [6]), 24 µM.

The record behind these values is PMC4697807, “Novel Zn^2+ Modulated GPR39 Receptor Agonists Do Not Drive Acute Insulin Secretion in Rodents” (PLoS ONE, 2015).
